The target of one experiment is Cdk1/cyclin B (Homo sapiens, UniProt P06493). The experiment in a line: Z'-LYTE kinase assay, Cdk1/cyclin B. It is filed as biochemical. To be noted: FIG. 8-10, in words. As for the experimental part: (§1) Cdk5 kinase assay was performed by adding Z′-LYTE™ peptide substrate and ATP together with Cdk5/p25 or Cdk5/p35 kinase solution in a 384-well black polystyrene plate (Corning 3676). The plate was then incubated for one hour at room temperature. Development solution was then added in the dark for another hour. Finally, stop solution was added and the coumarin and fluorescein emission signals were measured on a fluorescence plate reader (Tecan, infinite F500) (excitation: 400 nm, emission 445 and […], respectively). To calculate the activity of cdk5/p25 and Cdk5/p35, Z′-LYTE phosphopeptide was used as a 100% phosphorylation control while nonphosphorylated Z′-LYTE peptide is used as a 0% phosphorylation control to establish the maximal and minimal emission ratio values which enable to calculate the percentage of kinase phosphorylation. To determine the inhibitory effect on cdk5 activity, fractions and compounds to be tested were included in the kinase reaction. Zero inhibition was determined by using DMSO (solvent) instead of the compounds in the reaction. […]. Assays were done in quadruplicates and data was averaged from at least 4 independent experiments. Similar experimental protocols were performed for Cdk1/cyclin B and Cdk2/cyclin A kinase activity study. Activity of each kinase complex was evaluated by titration, and the resultant value of EC30 was used in the inhibitory study. Since activity of kinase complexes varies with different batches of preparation, EC30 will be determined in each new batch of kinases. […] Kinetic studies of compounds were performed by Cdk5/p25 kinase assays with various concentrations of ATP and tested compounds. The kinetic parameters were determined by a nonlinear least-squares program using GraphPad Prism 5 software.
Cdk1/cyclin B, sequence (P06493 whole entry, species assumed): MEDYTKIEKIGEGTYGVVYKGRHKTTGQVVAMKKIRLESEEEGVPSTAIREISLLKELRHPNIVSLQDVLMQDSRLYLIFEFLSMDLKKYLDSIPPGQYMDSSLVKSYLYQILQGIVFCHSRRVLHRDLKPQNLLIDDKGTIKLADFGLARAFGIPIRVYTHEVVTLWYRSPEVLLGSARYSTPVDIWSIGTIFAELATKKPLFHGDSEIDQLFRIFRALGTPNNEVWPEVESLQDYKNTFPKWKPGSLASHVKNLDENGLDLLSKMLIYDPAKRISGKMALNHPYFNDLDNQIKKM
Cdk1/cyclin B, sequence (P14635 whole entry partner, species assumed): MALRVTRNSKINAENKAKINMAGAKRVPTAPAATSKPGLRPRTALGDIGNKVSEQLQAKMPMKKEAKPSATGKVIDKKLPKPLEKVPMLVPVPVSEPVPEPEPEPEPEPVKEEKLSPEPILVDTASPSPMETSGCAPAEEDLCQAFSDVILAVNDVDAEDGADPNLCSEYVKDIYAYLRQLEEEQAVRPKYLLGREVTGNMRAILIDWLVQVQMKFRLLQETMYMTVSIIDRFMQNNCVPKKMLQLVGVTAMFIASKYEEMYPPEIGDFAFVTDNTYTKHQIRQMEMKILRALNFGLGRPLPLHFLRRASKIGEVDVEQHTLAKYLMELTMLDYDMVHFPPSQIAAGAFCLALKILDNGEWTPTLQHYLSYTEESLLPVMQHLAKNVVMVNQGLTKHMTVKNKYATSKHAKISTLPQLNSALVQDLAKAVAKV

A further experiment concerns the target Cdk2/cyclin A (Homo sapiens, UniProt P24941). The experiment in a line: Z'-LYTE kinase assay, Cdk2/cyclin A. Format: biochemical. To be noted: FIG. 8-10, in words. As to the method:
as §1

For another experiment, the target named is Cdk5/p25 (Homo sapiens, UniProt Q00535). Kind of experiment: FRET-based Z'-LYTE Cdk5 kinase assay, Cdk5/p25. It is filed as biochemical. The conditions noted are these: for IC50: Cdk5/p25, Table 1; for inhibition at 80 µM: Cdk5/p25, at 80 μM; for inhibitory effect on Cdk5/p25: FIG. 8-10, in words; for inhibition at 30 µM: compound 30 μM, 30 ng/ml Cdk5/p25, FIG. 3; for inhibition at 200 µM: Cdk5/p25, at 200 μM; for mode of inhibition on Cdk5/p25 complex: 0.5, 1, 2 and 4 μM, increasing ATP, FIG. 11. As to the method: (§2) Cdk5 kinase assay was performed as described in the instruction manual (Invitrogen, cat. no. PV3673). This assay employs a FRET-based, coupled-enzyme format and is based on the differential sensitivity of phosphorylated and non-phosphorylated peptides to proteolytic cleavage. The assay uses a synthetic peptide substrate (the Z′-LYTE™ peptide substrate) that is labeled with a donor fluorophore (coumarin) and an acceptor fluorophore (fluorescein) to make up a FRET pair. In the primary reaction, Cdk5 transfers the γ-phosphate of ATP to a serine/threonine residue on the substrate, while the presence of a kinase inhibitor in the primary reaction suppresses phosphorylation. […] Cleavage disrupts FRET between the donor and acceptor fluorophores on the non-phosphorylated substrate, while uncleaved phosphorylated substrate maintains FRET. The effectiveness of the compounds on inhibiting the Cdk5 activity is then measured by calculating the emission ratio.
Cdk5/p25, sequence (Q00535 whole entry, species assumed): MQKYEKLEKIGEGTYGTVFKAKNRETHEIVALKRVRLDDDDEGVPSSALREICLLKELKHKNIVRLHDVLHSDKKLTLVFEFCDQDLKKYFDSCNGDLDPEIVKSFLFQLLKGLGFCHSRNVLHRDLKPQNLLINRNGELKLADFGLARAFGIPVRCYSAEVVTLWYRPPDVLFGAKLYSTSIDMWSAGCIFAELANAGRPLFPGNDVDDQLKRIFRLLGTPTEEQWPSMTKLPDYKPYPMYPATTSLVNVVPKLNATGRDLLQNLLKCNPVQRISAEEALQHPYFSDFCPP
Cdk5/p25, sequence (Q15078 99-307 partner limits assumed, species assumed): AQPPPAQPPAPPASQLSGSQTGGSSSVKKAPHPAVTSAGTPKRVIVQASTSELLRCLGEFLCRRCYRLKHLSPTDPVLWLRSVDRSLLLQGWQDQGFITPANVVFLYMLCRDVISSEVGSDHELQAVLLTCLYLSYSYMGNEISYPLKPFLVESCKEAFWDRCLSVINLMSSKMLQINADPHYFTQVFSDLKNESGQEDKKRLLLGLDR
(§3) The plate was then incubated for one hour at room temperature. Development solution was then added in the dark for another hour. […] To calculate the activity of cdk5/p25 and Cdk5/p35, Z′-LYTE phosphopeptide was used as a 100% phosphorylation control while nonphosphorylated Z′-LYTE peptide is used as a 0% phosphorylation control to establish the maximal and minimal emission ratio values which enable to calculate the percentage of kinase phosphorylation. To determine the inhibitory effect on cdk5 activity, fractions and compounds to be tested were included in the kinase reaction. Zero inhibition was determined by using DMSO (solvent) instead of the compounds in the reaction. […] Assays were done in quadruplicates and data was averaged from at least 4 independent experiments. Similar experimental protocols were performed for Cdk1/cyclin B and Cdk2/cyclin A kinase activity study. Activity of each kinase complex was evaluated by titration, and the resultant value of EC30 was used in the inhibitory study. Since activity of kinase complexes varies with different batches of preparation, EC30 will be determined in each new batch of kinases. […] Kinetic studies of compounds were performed by Cdk5/p25 kinase assays with various concentrations of ATP and tested compounds. The kinetic parameters were determined by a nonlinear least-squares program using GraphPad Prism 5 software.
(§4) Using the FRET-based Cdk5 kinase assay method described above, the compounds of the present invention were examined for their inhibitory effects on Cdk5 kinase activity. The amount of Cdk5/25 and Cdk5/p35 used for screening Cdk5 inhibitors is EC30 of the kinase complex and the EC30 was determined with a titration study of kinase complex. The effectiveness of the compounds on inhibiting Cdk5 activity was then measured by comparing the percent phosphorylation of peptide substrates by Cdk5 kinase in the presence of test compounds and percent phosphorylation of peptide substrates by Cdk5 without test compounds.
Seven natural compounds isolated from Rhodiola rosea (F199) were selected for IC50 and maximal inhibition determination. Various concentrations of the F199 compounds were incubated with Cdk5/p25. The effectiveness of the compounds on inhibiting Cdk5 activity was then calculated by comparing the percent phosphorylation of peptide substrates by Cdk5/p25 in the presence of test compounds and percent phosphorylation of peptide substrates by Cdk5/p25 without test compounds.

For a further experiment, the target named is Cdk5/p35 (Homo sapiens, UniProt Q00535). Kind of experiment: FRET-based Z'-LYTE Cdk5 kinase assay, Cdk5/p35. Format: biochemical. To be noted: for inhibitory effect on Cdk5/p35: FIG. 8-10, in words; for inhibition at 30 µM: compound 30 μM, 30 ng/ml Cdk5/p35, FIG. 3. As to the method:
as §2, §3, §4

In the next experiment the test system is rat cortical neurons. Kind of experiment: Aβ assay (MTT) in cortical neurons. It is filed as cell-based. To be noted: about 30 and 50 μM, Aβ25-35 10 μM, vs DMSO control. As to the method:
Embryonic rat cortical neurons (7 DIV) were pre-treated with various concentrations of compounds (3-50 μM) and then co-incubated with Aβ25-35 (10 μM). After overnight incubation, the MTT assay was performed. Cell survival was calculated as a percentage compared to the vehicle control (DMSO). Assays were conducted in duplicates and data were compared with student-t test. *=P<0.05.
Cortical neurons at 7 DIV in culture isolated from embryonic day 18 rats were used as cell models in the assay. Toxicity caused by Aβ25-35 peptide in these cells was evaluated by MTT detection after […]. The Aβ assay was performed to investigate the ability of the invention to protect cortical neurons from cell death induced by exogenous Aβ25-35 peptide addition. Assays were done in duplicates and data was averaged from at least 3 independent experiments.
Exogenous addition of Aβ initiates cell death of neuronal cultures via apoptosis. The MTT assay, a well-known cell death assay, was performed to study the ability of the compounds of the present invention to prevent Aβ-induced excitotoxicity in primary cortical neuronal cells. Embryonic rat cortical neurons (7 DIV) were pre-treated with various concentrations of the compounds (3-50 μM) and then co-incubated with Aβ25-35 (10 μM). After overnight incubation, the MTT assay was performed. Cell survival was calculated as a percentage compared to the vehicle control (DMSO). Assays were conducted in duplicates and data were analyzed with student-t test. *=P<0.05. The results of exemplary compounds, F199-C6, F199-C34 and F199-C22 are presented in FIG. 5, FIG. 6 and FIG. 7, respectively.

For another experiment, the target named is Cdk5 (Homo sapiens, UniProt Q00535). To be noted: reported elsewhere, controls; cited from earlier work.
Cdk5, sequence (Q00535 whole entry, species assumed): as the sequence (Q00535 whole entry, species assumed) above
Cdk5, sequence (Q15078 whole entry partner, species assumed): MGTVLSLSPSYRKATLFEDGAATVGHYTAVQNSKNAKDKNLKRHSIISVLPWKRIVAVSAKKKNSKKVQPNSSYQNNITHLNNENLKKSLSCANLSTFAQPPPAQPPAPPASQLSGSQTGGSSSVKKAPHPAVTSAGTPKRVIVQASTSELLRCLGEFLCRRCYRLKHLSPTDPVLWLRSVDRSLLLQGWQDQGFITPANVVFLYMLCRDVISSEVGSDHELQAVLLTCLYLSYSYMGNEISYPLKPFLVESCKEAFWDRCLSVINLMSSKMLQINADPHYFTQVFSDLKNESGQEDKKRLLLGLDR
Another experiment concerns formalin-induced pain. Kind of experiment: Animal model of pain (formalin paw-licking). Format: in vivo, mice. As for the experimental part: Adult ICR mice (6-8 week-old) habituated in the experimental room for 3 days before the testing. Testing was conducted from 9 am to 3 pm. Mice were randomly grouped and weighed. Mice were pretreated with a single dose of F199-C16 (10-100 mg/kg, intraperitoneal injection) and then injected with 10 μl of 2.5% formalin in the subplantar of the right hind paw. The licking time (in seconds) was recorded during 0-10 minutes (early phase) and in 11-40 minutes (late phase) after formalin injection. The whole process was monitored and recorded by a digital monochrome video camera. Data were expressed as the mean±SEM. (*p<0.05; ANOVA, with Student-Newman Keuls test).
The effect of F199-C16 was examined in an animal model of pain. The pain was induced by injecting formalin into the paw of the mouse.

Where only a bound is given, the exact number is not on record here.

Cdk5/p35, sequence (Q00535 whole entry, species assumed): as the sequence (Q00535 whole entry, species assumed) above
Cdk5/p35, sequence (Q15078 whole entry partner, species assumed): as the sequence (Q15078 whole entry partner, species assumed) above

Consider `O=C(OCC1OC(Oc2ccc(O)cc2)C(O)C(O)C1O)c1cc(O)c(O)c(O)c1` (stereo not shown) [Compound F199-C34, 6-O-galloyl arbutin], for which the “inhibitory effect on Cdk1/cyclin B” value at Cdk1/cyclin B is listed as “less effect”. Besides, the “inhibitory effect on Cdk2/cyclin A” value at Cdk2/cyclin A is “less effect”. Further, on Cdk5/p25, the IC50 stood at 5.63 µM, the “inhibitory effect on Cdk5/p25” value is reported as “potent inhibitory effect” and the inhibition at 30 µM lay within 50 to 75%. For the same compound, at Cdk5/p25 (read-out: Maximum inhibition), the inhibition at 80 µM worked out at 70%. On Cdk5/p35, the “inhibitory effect on Cdk5/p35” value was “less effect” and the inhibition at 30 µM lay in the range of 50 to 75%. In addition, the “neuronal cell survival against Aβ toxicity” value (shortened to “neuronal cell survival”) with rat cortical neurons was “significantly promoted neuronal cell survival”.
For the compound `O=C(O)c1cc(O)c(O)c(O)c1` [Compound F199-C4, gallic acid], on Cdk5/p25, the IC50 came out at 40.6 µM and the inhibition at 30 µM was in the range of 25 to 50%. In addition, the inhibition at 200 µM at Cdk5/p25 (read-out: Maximum inhibition) stood at 64.2%. At Cdk5/p35, the inhibition at 30 µM lay within 25 to 50%.
Turning to `O=C(O[C@@H]1Cc2c(O)cc(O)cc2O[C@@H]1c1cc(O)c(O)c(O)c1)c1cc(O)c(O)c(O)c1` [Compound F199-C35, epigallocatechin-3-gallate], at Cdk5/p25, the IC50 was found to be 14.7 µM.
`O=c1c(O)c(-c2ccc(O)cc2)oc2cc(O)cc(O)c12` [Compound F199-C2, kaempferol]: the “reported inhibition of Cdk5 activity” value on Cdk5 is listed as “moderately inhibit Cdk5 activity”.
On Cdk5/p25, `O=C(OCC1OC(OC/C=C/c2ccccc2)C(O)C(O)C1O)c1cc(O)c(O)c(O)c1` (stereo not shown) [Compound F199-C22, 6-O-galloyl rosin] came in with a half-maximal inhibitory concentration (IC50) of 20.1 µM. In addition, the inhibition at 80 µM on Cdk5/p25 (read-out: Maximum inhibition) is 46.5%. Further, the inhibition at 30 µM at Cdk5/p25 and against Cdk5/p35 was under 25% each time. In addition, the “neuronal cell survival” value with rat cortical neurons is given as “significantly promoted neuronal cell survival”.
For the compound `CC1OC(Oc2c(O)cc(O)c3c(=O)c(O)c(-c4ccc(O)cc4)oc23)C(O)C(O)C1O` (stereo not shown) [Compound F199-C16, litvinolin], the “inhibitory effect on Cdk1/cyclin B” value on Cdk1/cyclin B is “potently”. In addition, on Cdk2/cyclin A, the “inhibitory effect on Cdk2/cyclin A” value was “minimal”. Also, at Cdk5/p25, the “mode of inhibition on Cdk5/p25 complex” value is “mixed inhibition”, the half-inhibitory concentration (IC50) was found to be 3.24 µM, the “inhibitory effect on Cdk5/p25” value is listed as “milder inhibition” and the inhibition at 30 µM lay within 50 to 75%. Moreover, the inhibition at 200 µM on Cdk5/p25 (read-out: Maximum inhibition) is 87.5%. On Cdk5/p35, the “inhibitory effect on Cdk5/p35” value was “milder inhibition” and the inhibition at 30 µM was in the range of 50 to 75%. In the experiment with formalin-induced pain (100 mg/kg i.p.), the “licking time, early phase (0-10 min)” value is on record as “significantly reduced the licking time” and the “licking time, late phase (11-40 min)” value is “significantly reduced the licking time”. In addition, in the experiment with formalin-induced pain (10-100 mg/kg i.p., single dose, formalin), the “licking time of right hind paw” value is recorded as “reduced the licking time of right hind paw in a dose-dependent manner”.
As to `COc1ccc(-c2oc3c(O)c(O)cc(O)c3c(=O)c2O)cc1` [Compound F199-C23, 4′-methoxyherbacetin], the “inhibitory effect on Cdk1/cyclin B” value against Cdk1/cyclin B is “inhibited similarly”. Also, on Cdk2/cyclin A, the “inhibitory effect on Cdk2/cyclin A” value is listed as “minimal”. For the same compound, on Cdk5/p25, the “mode of inhibition on Cdk5/p25 complex” value was “mixed inhibition”; the midpoint of inhibition, the IC50, lay at 1.21 µM; the “inhibitory effect on Cdk5/p25” value is given as “inhibited similarly”; the inhibition at 30 µM was in the range of 50 to 75%. For the same compound, at Cdk5/p25 (Cdk5/p25, at 20 μM, read-out: Maximum inhibition), the inhibition at 20 µM turned out to be 45%. For the same compound, at Cdk5/p35, the “inhibitory effect on Cdk5/p35” value is “inhibited similarly” and the inhibition at 30 µM fell in the range of 50 to 75%.
Take `CC[C@H](CC[C@@H](C)[C@H]1CC[C@H]2[C@@H]3CC=C4C[C@@H](O[C@@H]5O[C@H](CO)[C@@H](O)[C@H](O)[C@H]5O)CC[C@]4(C)[C@H]3CC[C@]12C)C(C)C` [Compound F199-C1, daucosterol, reference compound]: the inhibition at 30 µM against Cdk5/p25 and at Cdk5/p35 was under 25% in each case. Also, the “reported inhibition of Cdk5 activity” value on Cdk5 is recorded as “moderately inhibit Cdk5 activity”.
On Cdk5/p25, `O=c1c(O)c(-c2ccc(O)cc2)oc2c(OC3OCC(O)C(O)C3O)c(O)cc(O)c12` (stereo not shown) [Compound F199-C6, rhodalin] registered an IC50 of 34.4 µM and an inhibition at 30 µM of 25 to 50%. The inhibition at 200 µM on Cdk5/p25 (read-out: Maximum inhibition) was 56.6%. At Cdk5/p35, this compound registered an inhibition at 30 µM of 25 to 50%. Moreover, the “neuronal cell survival” value in the experiment with rat cortical neurons is “significantly promoted neuronal cell survival”.
